What was measured:
[1] = biological target: Chk2 (Homo sapiens, UniProt O96017); assay: cell-based or ex vivo assays of CHK2 activity
[2] = biological target: Rsk3 (Homo sapiens, UniProt Q15349); assay: biochemical
[3] = biological target: Fyn (Homo sapiens, UniProt P06241); assay: biochemical kinase screening assay
[4] = biological target: P70S6K (Homo sapiens, UniProt P23443); assay: biochemical kinase screening assay
[5] = biological target: PRK2 (Homo sapiens, UniProt Q16513); assay: biochemical kinase screening assay
[6] = biological target: Lck (Homo sapiens, UniProt P06239); assay: biochemical
[7] = tested on: G2 checkpoint induced by camptothecin (Histone H3 phosphorylation on Ser10); assay: Histone H3 phosphorylation assay (G2 checkpoint abrogation); type: cell-based; settings: read-out: EC50, abrogation of G2 checkpoint (increase in Histone H3 phosphorylation on Ser10)
[8] = biological target: PKBa (Homo sapiens, UniProt P31749); assay: biochemical kinase screening assay
[9] = biological target: Fms (Homo sapiens, UniProt P07333); assay: biochemical kinase screening assay
[10] = biological target: Ret (Homo sapiens, UniProt P07949); assay: biochemical kinase screening assay
[11] = biological target: Rsk2 (Homo sapiens, UniProt P51812); assay: biochemical kinase screening assay
[12] = tested on: wild type p53 HCT116 cells; assay: cell survival assay, transiently transfected p53 wild type; type: cell-based, human; settings: Compound 1 + gemcitabine compared with gemcitabine alone
Description: (§1) The cytotoxic effect induced by the combination treatment in HUVEC cells is negligible compared with the cytotoxicity induced by the same treatment in tumor cells. […] A cell survival assay was also performed in HTC116 cells (human colon carcinoma) that were transiently transfected with a plasmid containing either p53 wild type or mutant.

[13] = biological target: Bmx (Homo sapiens, UniProt P51813); assay: biochemical kinase screening assay
[14] = biological target: FGFR3 (Homo sapiens, UniProt P22607); assay: biochemical kinase screening assay
[15] = biological target: Abl(m) (Mus musculus, UniProt P00520); assay: biochemical kinase screening assay
[16] = tested on: gemcitabine induced S-Phase arrest; assay: flow cytometry cell cycle / apoptosis analysis; type: cell-based
[17] = biological target: PDGFRa (Homo sapiens, UniProt P16234); assay: biochemical kinase screening assay
[18] = biological target: EGFR2 (Homo sapiens, UniProt P35968); assay: biochemical kinase screening assay; settings: read-out: IC50 (nM), given as Ki
[19] = biological target: PDK1 (Homo sapiens, UniProt O15530); assay: biochemical kinase screening assay
[20] = tested on: K562 (Leukemia); assay: cell survival / MTT combination cytotoxicity; type: cell-based, human; settings: Homo sapiens
[21] = tested on: MDA-MB-231 (Breast); assay: cell survival / MTT combination cytotoxicity; type: cell-based, human; settings: Homo sapiens
[22] = biological target: Rsk1 (Homo sapiens, UniProt Q15418); assay: biochemical kinase screening assay
[23] = tested on: mutant p53 HCT116 cells; assay: cell survival assay, transiently transfected p53 mutant; type: cell-based, human; settings: Compound 1 + gemcitabine compared with gemcitabine alone
Description: as §1

[24] = biological target: PAR-1Ba (Homo sapiens, UniProt Q7KZI7); assay: biochemical kinase screening assay
[25] = biological target: TrkA (Homo sapiens, UniProt P04629); assay: biochemical kinase screening assay
Sequence of TrkA (P04629 33-796): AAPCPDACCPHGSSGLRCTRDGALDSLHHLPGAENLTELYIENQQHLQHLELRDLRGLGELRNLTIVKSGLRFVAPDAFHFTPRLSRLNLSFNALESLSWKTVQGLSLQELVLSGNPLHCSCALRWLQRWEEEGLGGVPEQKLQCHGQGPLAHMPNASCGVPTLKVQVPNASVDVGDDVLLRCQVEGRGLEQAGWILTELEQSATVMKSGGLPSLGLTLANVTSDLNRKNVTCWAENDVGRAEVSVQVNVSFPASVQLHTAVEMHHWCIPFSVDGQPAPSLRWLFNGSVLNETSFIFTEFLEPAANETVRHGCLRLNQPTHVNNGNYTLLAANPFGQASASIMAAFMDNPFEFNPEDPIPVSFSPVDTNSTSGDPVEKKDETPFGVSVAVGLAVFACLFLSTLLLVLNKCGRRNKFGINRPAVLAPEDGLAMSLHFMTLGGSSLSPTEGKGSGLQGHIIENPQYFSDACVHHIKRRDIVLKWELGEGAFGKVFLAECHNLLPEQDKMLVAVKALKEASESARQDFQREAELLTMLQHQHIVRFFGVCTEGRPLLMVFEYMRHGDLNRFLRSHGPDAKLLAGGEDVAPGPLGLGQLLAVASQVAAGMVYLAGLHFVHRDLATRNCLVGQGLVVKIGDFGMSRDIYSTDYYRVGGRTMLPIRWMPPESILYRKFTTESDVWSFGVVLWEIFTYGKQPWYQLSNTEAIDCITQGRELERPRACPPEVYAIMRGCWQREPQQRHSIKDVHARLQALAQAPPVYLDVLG

Sequence of Abl(m) (P00520 whole entry): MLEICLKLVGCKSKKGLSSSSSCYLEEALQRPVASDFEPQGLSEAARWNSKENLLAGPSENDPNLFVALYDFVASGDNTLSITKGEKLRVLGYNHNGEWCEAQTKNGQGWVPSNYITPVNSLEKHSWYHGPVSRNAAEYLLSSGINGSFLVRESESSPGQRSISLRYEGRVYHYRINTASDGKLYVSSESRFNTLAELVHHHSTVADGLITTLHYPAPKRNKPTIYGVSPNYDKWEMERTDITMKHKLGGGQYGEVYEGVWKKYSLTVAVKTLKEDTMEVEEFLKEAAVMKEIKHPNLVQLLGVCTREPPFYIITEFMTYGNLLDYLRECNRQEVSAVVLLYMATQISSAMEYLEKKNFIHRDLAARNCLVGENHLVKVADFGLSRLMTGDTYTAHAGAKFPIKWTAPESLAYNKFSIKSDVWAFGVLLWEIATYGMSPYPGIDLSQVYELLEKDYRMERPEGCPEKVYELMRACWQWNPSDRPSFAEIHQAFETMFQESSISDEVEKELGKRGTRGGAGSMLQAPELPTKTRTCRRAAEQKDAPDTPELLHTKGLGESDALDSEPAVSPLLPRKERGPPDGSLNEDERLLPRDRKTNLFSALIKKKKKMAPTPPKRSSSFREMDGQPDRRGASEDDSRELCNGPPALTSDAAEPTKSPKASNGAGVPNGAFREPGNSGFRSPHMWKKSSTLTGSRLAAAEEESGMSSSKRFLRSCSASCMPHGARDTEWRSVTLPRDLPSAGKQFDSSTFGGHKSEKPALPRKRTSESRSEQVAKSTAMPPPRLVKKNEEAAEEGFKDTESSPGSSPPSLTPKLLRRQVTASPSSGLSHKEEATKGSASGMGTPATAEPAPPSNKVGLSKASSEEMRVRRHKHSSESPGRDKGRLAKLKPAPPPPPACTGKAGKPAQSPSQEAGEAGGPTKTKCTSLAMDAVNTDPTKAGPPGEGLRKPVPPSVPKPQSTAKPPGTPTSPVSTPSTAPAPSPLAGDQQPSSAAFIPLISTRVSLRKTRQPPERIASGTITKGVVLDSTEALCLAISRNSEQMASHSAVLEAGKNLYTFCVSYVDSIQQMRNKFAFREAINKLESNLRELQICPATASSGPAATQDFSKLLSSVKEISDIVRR
Sequence of Rsk2 (P51812 whole entry): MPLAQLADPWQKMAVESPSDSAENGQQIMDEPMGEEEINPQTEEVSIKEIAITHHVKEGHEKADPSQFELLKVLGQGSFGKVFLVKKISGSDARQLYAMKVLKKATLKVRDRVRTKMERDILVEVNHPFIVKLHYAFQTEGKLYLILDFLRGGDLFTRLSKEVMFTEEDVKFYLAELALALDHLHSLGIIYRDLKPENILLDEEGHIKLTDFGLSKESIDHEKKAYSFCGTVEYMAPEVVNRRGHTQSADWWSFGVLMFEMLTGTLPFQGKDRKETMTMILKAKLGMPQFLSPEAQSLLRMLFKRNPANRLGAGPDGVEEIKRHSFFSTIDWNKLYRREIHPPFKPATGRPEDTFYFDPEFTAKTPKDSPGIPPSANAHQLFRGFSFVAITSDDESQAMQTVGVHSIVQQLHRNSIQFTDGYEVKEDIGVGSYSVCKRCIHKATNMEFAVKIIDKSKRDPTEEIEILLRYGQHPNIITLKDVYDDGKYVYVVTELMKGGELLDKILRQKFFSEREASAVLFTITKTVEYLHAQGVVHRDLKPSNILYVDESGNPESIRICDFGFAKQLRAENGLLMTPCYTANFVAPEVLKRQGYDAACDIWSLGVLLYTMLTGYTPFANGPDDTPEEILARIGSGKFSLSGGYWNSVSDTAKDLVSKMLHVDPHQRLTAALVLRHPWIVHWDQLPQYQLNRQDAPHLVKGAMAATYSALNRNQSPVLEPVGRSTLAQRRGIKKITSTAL
Sequence of Rsk3 (Q15349 whole entry): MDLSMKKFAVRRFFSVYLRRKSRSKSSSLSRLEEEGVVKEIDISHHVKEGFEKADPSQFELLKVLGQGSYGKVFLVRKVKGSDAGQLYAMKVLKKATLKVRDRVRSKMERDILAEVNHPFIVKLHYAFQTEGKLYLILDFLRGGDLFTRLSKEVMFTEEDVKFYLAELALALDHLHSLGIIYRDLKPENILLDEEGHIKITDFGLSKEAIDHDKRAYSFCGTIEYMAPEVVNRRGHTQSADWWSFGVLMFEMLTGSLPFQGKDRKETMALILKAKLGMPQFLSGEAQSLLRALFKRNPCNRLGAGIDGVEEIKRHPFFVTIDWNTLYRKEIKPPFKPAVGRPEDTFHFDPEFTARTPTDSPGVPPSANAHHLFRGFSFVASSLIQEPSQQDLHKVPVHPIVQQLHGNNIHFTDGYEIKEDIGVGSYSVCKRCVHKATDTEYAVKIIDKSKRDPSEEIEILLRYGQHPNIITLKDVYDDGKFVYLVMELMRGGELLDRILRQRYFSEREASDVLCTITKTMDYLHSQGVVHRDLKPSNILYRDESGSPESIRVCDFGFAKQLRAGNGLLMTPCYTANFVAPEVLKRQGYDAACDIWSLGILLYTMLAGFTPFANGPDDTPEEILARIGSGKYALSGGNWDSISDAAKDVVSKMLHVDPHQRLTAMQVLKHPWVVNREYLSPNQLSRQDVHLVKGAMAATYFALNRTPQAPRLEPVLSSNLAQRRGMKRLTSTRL
Sequence of Fyn (P06241 whole entry): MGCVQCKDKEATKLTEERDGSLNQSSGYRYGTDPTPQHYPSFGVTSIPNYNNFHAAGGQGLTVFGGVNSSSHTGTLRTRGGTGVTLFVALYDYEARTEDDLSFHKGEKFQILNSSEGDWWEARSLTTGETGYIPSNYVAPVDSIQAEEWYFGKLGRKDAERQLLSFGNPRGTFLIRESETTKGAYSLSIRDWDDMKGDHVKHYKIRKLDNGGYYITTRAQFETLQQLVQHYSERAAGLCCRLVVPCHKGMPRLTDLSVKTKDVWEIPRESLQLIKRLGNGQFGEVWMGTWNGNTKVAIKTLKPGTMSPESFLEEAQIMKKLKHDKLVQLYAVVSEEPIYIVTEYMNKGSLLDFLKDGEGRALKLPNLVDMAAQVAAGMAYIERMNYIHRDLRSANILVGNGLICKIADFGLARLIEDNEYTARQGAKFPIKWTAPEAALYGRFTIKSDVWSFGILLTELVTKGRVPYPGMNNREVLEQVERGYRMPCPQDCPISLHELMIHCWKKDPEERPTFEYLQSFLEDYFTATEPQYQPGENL
Sequence of Fms (P07333 20-972): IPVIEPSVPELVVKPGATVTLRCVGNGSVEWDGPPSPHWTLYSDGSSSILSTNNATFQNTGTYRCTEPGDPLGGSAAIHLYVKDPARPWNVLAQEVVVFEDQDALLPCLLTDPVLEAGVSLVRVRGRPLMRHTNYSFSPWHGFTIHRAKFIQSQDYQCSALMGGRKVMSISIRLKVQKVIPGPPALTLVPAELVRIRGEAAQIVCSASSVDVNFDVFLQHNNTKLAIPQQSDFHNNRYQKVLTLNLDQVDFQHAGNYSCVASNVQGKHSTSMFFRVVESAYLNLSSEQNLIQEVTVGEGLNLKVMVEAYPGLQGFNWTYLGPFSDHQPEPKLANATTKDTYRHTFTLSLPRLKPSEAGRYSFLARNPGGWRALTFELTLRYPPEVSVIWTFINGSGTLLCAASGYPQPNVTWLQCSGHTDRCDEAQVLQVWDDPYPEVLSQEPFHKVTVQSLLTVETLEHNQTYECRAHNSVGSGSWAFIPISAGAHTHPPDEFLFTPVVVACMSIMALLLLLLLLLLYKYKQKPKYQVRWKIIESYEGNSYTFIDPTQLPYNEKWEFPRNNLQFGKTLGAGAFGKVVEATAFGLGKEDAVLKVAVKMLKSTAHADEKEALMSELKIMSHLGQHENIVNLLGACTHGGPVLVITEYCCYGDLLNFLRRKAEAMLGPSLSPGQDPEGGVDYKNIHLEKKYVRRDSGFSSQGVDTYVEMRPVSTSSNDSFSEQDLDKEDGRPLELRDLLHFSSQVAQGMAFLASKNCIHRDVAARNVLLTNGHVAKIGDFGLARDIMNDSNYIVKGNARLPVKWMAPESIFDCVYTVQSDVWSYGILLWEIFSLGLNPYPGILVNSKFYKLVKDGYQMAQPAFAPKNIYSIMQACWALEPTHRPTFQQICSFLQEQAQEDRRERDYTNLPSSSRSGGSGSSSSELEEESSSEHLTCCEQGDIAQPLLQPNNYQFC

What does the source list for Cn1cc(-c2[nH]c3cc(NC(=O)[C@H](N)C4CCCCC4)cc4c3c2C=NNC4=O)cn1 [Compound 1]?
modulation of CHK2 activity [1]: no evidence that CHK2 activity is modulated; IC50 [2]: 171 nM; IC50 [3]: 953 nM; IC50 [4]: 61 nM; IC50 [5]: 1980 nM; IC50 [6]: 396 nM; EC50 [7]: 45 nM; IC50 [8]: 9200 nM; IC50 [9]: 10 nM; IC50 [10]: 39 nM; IC50 [11]: 621 nM; cell growth inhibition [12]: 15%; IC50 [13]: 233 nM; IC50 [14]: 23 nM; IC50 [15]: 929 nM; S-Phase arrest by flow cytometry ([16]; combination with gemcitabine): abrogation of gemcitabine induced S-Phase arrest; apoptotic cells by flow cytometry ([16]; gemcitabine + Compound 1 compared with gemcitabine alone): significant increase in apoptotic cells; effect on cell cycle ([16]; in the absence of DNA damage): no effect on cell cycle; IC50 [17]: 2810 nM; Ki [18]: 8 nM; IC50 [19]: 439 nM; IC50 [20]: 420 nM; IC50 [21]: 1400 nM; IC50 [22]: 98 nM; cell growth inhibition [23]: 44%; IC50 [24]: 350 nM; IC50 [25]: 1270 nM

From patent publication US20090312280A1
